# Read-outs that look alike come from different tables or passages of the source.
# Tests used:
# [1] = test system: forearm of a human volunteer; assay: Human vasoconstriction test; assay type: in vivo; details: 10 mM
# Method: Test compounds (10 mM) were dissolved in ethanol/propylene glycol (9/1) solution, and 50 μL of the mixtures were applied to circular patches, 8 mm in diameter. After ethanol evaporation, the patches were applied to the forearm of a human volunteer, and covered with a water impervious film for 3 hours. The intensity of vasoconstriction was judged 1, 8, 17 and 24 hours after the patches were removed.
# The grading scale for the vasoconstriction activity was as follows: 0, normal skin; 1, slight pallor of indistinct outline; 2, pallor with at least two corners outlined; 3, even pallor with a clear outline of the application sites; 4, very intense pallor.
# [2] = test system: forearms of a human volunteer; assay: Further human vasoconstriction testing, Method 1; assay type: in vivo; details: 10 mM
# Method: The mixtures, in 50 μL amounts, were applied to circular patches (8 mm diameter). After evaporation of ethanol, the patches were applied to the forearms of a human volunteer, and covered with a water impervious film for 3 hr. The intensity of vasoconstriction (scale 0-4) was judged at various time intervals after removal of the patches. The grading scale was as follows: 0, normal skin; 1, slight pallor of indistinct outline; 2, pallor with at least two corners outlined; 3, even pallor with a clear outline of the application sites; 4, very intense pallor. The skin tests (2-4 tests on each compound) were performed on the same person.
# [3] = target: T1, rat lung glucocorticoid receptor (Rattus norvegicus, UniProt P06536); assay: Receptor binding studies ([3H]triamcinolone acetonide displacement); details: for Relative binding affinity (RBA): with respect to dexamethasone (RBA = 100); for RBA: further receptor binding studies (Table X), dexamethasone = 100, * mean ± SE of 3-5 results
# T1 construct: Immediately after resection of the lungs, the tissue was frozen in ice; The cytosol was prepared; from tissue; host or cells: lung cytosol of adrenalectomized male Sprague-Dawley rats
# T1 sequence (P06536 1-795): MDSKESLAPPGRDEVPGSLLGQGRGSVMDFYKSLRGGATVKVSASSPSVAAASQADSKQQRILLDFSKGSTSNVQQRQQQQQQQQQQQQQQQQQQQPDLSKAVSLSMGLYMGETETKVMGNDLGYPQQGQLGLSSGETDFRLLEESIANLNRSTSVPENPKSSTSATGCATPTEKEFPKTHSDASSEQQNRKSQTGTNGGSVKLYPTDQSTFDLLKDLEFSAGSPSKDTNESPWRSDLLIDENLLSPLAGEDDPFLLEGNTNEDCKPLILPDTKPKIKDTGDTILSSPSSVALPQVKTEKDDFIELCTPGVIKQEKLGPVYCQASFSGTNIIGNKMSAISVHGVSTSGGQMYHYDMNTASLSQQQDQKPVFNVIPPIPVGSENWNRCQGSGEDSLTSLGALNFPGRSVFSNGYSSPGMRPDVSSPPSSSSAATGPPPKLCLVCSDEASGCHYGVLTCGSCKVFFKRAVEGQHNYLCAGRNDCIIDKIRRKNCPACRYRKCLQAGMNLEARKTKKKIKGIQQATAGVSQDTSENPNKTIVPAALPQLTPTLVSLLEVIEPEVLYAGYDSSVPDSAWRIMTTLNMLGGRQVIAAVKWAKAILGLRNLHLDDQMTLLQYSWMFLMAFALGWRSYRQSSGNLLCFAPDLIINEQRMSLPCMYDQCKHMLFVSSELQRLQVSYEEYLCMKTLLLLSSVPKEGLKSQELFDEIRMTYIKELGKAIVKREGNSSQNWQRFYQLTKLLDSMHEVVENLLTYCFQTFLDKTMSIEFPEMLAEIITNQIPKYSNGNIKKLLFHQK
# Method: Male Sprague-Dawley rats, each weighing 150 to 200 g, were used 6 days after adrenalectomy. Rats were sacrificed by decapitation. Immediately after resection of the lungs, the tissue was frozen in ice. […] Portions (5 ml) of the cytosol were frozen in liquid nitrogen and stored at -80° C.
# The cytosol was thawed in a water bath and diluted with 1 part of incubation buffer containing a 15 mM concentration of diisopropyl fluorophosphate. […] After a 2 hour incubation period at room temperature (24° C.), the unbound steroid was removed by addition of a 2% suspension of activated charcoal in incubation buffer (400 μL). The mixture was incubated for 5 minutes at room temperature and then was centrifuged at about 10,000 g for 3 minutes in the microcentrifuge. The radioactivity (cpm) in the supernatant (400 μL) was determined by liquid scintillation counting.
# The data is fitted to the following logistic function:
# B=T-T * C^N /(C^N +IC50^N)+NS,
# where B=CPM in the presence of competitor, T=CPM in the absence of competitor, C=competitor concentration, N=Hill slope factor, and NS=cpm under non-specific binding conditions.
# For the representative compound of the invention B, receptor binding affinity was investigated with and without Δ^1 -cortienic acid in the incubation solution to study the effect of Δ^1 -cortienic acid on the receptor binding.
# Further studies to evaluate the relative receptor binding affinities of compounds of the invention, other compounds of formula (VII) hereinabove and well-known anti-inflammatory steroids were undertaken, using the methods described in the RECEPTOR BINDING STUDIES set forth above. […] For comparison purposes, the following compounds having formula (VII) above were also tested: […]
# [4] = test system: forearm of a human volunteer; assay: Further human vasoconstriction testing, Method 2; assay type: in vivo; design: key: +: "positive" (pallor could be observed); -: "negative" (pallor could not be detected)
# Method: The mixtures, in 20 μL amounts, were applied to circular patches (1/4 inch diameter). The patches were applied to the forearm of a human volunteer, and covered with a water impervious film for 3 hr. Vasoconstriction activity was judged by the appearance of pallor at various time points after the patches were removed. Tests were performed on the same person and the results were obtained from 2-4 observations.
# In TABLE XIV above, "-" means a negative result was obtained. In other tables herein, "-" means not tested.
# In TABLE XIV above, the results of a simpler method of judging vasoconstriction activity was used in which only "positive" (pallor could be observed) or "negative" (pallor could not be detected) results were recorded.
# [5] = rat lung cytosol, 10 nM [3H]triamcinolone acetonide, with Δ1-cortienic acid, 2 h, 24° C., read-out: IC50
compound,measurement,setting,value
"C[C@@H]1C[C@H]2[C@@H]3CCC4=CC(=O)C=C[C@]4(C)[C@@]3(F)[C@@H](O)C[C@]2(C)[C@@]1(O)C(=O)CO [Dexamethasone, reference compound]",Vasoconstriction activity,[1]; 1 hour after patch removal,0
same,Vasoconstriction activity,[1]; 8 hours after patch removal,1
same,Vasoconstriction activity,[1]; 17 hours after patch removal,1
same,Vasoconstriction activity,[1]; 24 hours after patch removal,1
same,Vasoconstriction activity,[2]; 3 Hours,1
same,Vasoconstriction activity,[2]; 20 Hours,1
COC(=O)[C@@]1(O)CC[C@H]2[C@@H]3CCC4=CC(=O)C=C[C@]4(C)[C@H]3[C@@H](O)C[C@@]21C [E],IC50,[3],> 2 µM
same,Relative binding affinity (RBA),[3]; with Δ1-cortienic acid,< 1
CCOC(=O)[C@@]1(O)CC[C@H]2[C@@H]3CCC4=CC(=O)C=C[C@]4(C)[C@H]3[C@@H](O)C[C@@]21C [F],IC50,[3]; [5],> 2 µM
same,Relative binding affinity (RBA),[3]; with Δ1-cortienic acid,< 1
"CC(=O)[C@@]1(O)CC[C@H]2[C@@H]3C[C@H](C)C4=CC(=O)C=C[C@]4(C)[C@@]3(F)[C@@H](O)C[C@@]21C [Fluorometholone, reference compound]",RBA,[3],136 ± 5
CC(C)OC(=O)[C@@]1(O)CC[C@H]2[C@@H]3CCC4=CC(=O)C=C[C@]4(C)[C@H]3[C@@H](O)C[C@@]21C [G],IC50,[3]; [5],> 2 µM
same,Relative binding affinity (RBA),[3]; with Δ1-cortienic acid,< 1
"C[C@]12C=CC(=O)C=C1CC[C@@H]1[C@@H]2[C@@H](O)C[C@@]2(C)[C@H]1CC[C@]2(OC(=O)C(Cl)Cl)C(=O)O [H, 17α-dichloroacetoxy-11β-hydroxyandrosta-1,4-dien-3-one-17β-carboxylic acid]",IC50,[3]; [5],> 2 µM
same,Relative binding affinity (RBA),[3]; with Δ1-cortienic acid,< 2
"C[C@@H]1C[C@H]2[C@@H]3CCC4=CC(=O)C=C[C@]4(C)[C@@]3(F)[C@@H](O)C[C@]2(C)[C@@]1(OC(=O)C(Cl)Cl)C(=O)OCCl [K, chloromethyl 17α-dichloroacetoxy-9α-fluoro-11β-hydroxy-16α-methylandrosta-1,4-dien-3-one-17β-carboxylate]",Vasoconstriction activity,"[4]; 4 Hours, 0.01 mM",-
same,Vasoconstriction activity,"[4]; 4 Hours, 0.05 mM",-
same,Vasoconstriction activity,"[4]; 4 Hours, 0.1 mM",-
same,Vasoconstriction activity,"[4]; 4 Hours, 0.5 mM",-
same,Vasoconstriction activity,"[4]; 4 Hours, 1 mM",+
same,Vasoconstriction activity,"[4]; 4 Hours, 5 mM",+
same,Vasoconstriction activity,"[4]; 8 Hours, 0.01 mM",-
same,Vasoconstriction activity,"[4]; 8 Hours, 0.05 mM",-
same,Vasoconstriction activity,"[4]; 8 Hours, 0.1 mM",+
same,Vasoconstriction activity,"[4]; 8 Hours, 0.5 mM",+
same,Vasoconstriction activity,"[4]; 8 Hours, 1 mM",+
same,Vasoconstriction activity,"[4]; 8 Hours, 5 mM",+
same,Vasoconstriction activity,"[4]; 10-22 hours, 0.01 mM",-
same,Vasoconstriction activity,"[4]; 10-22 hours, 0.05 mM",-
same,Vasoconstriction activity,"[4]; 10-22 hours, 0.1 mM",-
same,Vasoconstriction activity,"[4]; 10-22 hours, 0.5 mM",+
same,Vasoconstriction activity,"[4]; 10-22 hours, 1 mM",+
same,Vasoconstriction activity,"[4]; 10-22 hours, 5 mM",+
same,Vasoconstriction activity,"[4]; 24 Hours, 0.01 mM",-
same,Vasoconstriction activity,"[4]; 24 Hours, 0.05 mM",-
same,Vasoconstriction activity,"[4]; 24 Hours, 0.1 mM",-
same,Vasoconstriction activity,"[4]; 24 Hours, 0.5 mM",+
same,Vasoconstriction activity,"[4]; 24 Hours, 1 mM",+
same,Vasoconstriction activity,"[4]; 24 Hours, 5 mM",+
COC(=O)[C@@]1(OC(=O)CCl)[C@H](C)C[C@H]2[C@@H]3CCC4=CC(=O)C=C[C@]4(C)[C@@]3(F)[C@@H](O)C[C@@]21C [S],Vasoconstriction activity,"[4]; 4 Hours, 0.01 mM",-
same,Vasoconstriction activity,"[4]; 4 Hours, 0.05 mM",-
same,Vasoconstriction activity,"[4]; 4 Hours, 0.1 mM",-
same,Vasoconstriction activity,"[4]; 4 Hours, 0.5 mM",-
same,Vasoconstriction activity,"[4]; 4 Hours, 1 mM",-
same,Vasoconstriction activity,"[4]; 4 Hours, 5 mM",-
CCOC(=O)[C@@]1(OC(=O)CCl)[C@H](C)C[C@H]2[C@@H]3CCC4=CC(=O)C=C[C@]4(C)[C@@]3(F)[C@@H](O)C[C@@]21C [T],Vasoconstriction activity,"[4]; 4 Hours, 0.01 mM",-
same,Vasoconstriction activity,"[4]; 4 Hours, 0.05 mM",-
same,Vasoconstriction activity,"[4]; 4 Hours, 0.1 mM",-
same,Vasoconstriction activity,"[4]; 4 Hours, 0.5 mM",-
same,Vasoconstriction activity,"[4]; 4 Hours, 1 mM",-
same,Vasoconstriction activity,"[4]; 4 Hours, 5 mM",-
"CC1(C)O[C@@H]2C[C@H]3[C@@H]4CCC5=CC(=O)C=C[C@]5(C)[C@@]4(F)[C@@H](O)C[C@]3(C)[C@]2(C(=O)CO)O1 [Triamcinolone acetonide, reference compound]",IC50,[3],0.013 µM
same,RBA,[3],630
same,Relative binding affinity (RBA),[3]; with Δ1-cortienic acid,628
